SUCC data for 1 compound are collected here from patent US12102685B2, “Immodulator peptides covalently modified with small molecules” (priority 2020, dated 2024).

This assay deals with THP1-Dual monocytes. The experiment in a line: Succinic acid in THP1-Dual supernatant (x4A). It counts as cell-based. On the procedure: Immune modulation functions of immodulator peptides were measured using the monocyte reporter cell line THP1-Dual (Invivogen, San Diego, CA), which provides convenient readouts for STING and NF-kappa-B pathways. Optionally, succinic acid, cytokine and chemokine production were also measured. THP1-Dual cell line was obtained from Invivogen. Cells were grown in a T-75 flask in RPMI Medium containing 20% fetal bovine serum, blasticidin ([…]), zeocin ([…]) and penicillin-streptomycin at 37° C. in a humidified, 5% CO2 incubator. Cells ([…], 8,000 cells/well) were plated in a 96-well plate and incubated overnight at 37 °C in a humidified, 5% CO2 incubator. Next day, […] of compounds were added (quadruplicate wells). After 24 hour incubation with the compound, supernatants were harvested and stored at 4° C. prior to assay.
STING activity using reagents QuantiBlu and QuantiLuc respectively, according to the manufacturer's recommendations (Invivogen, San Diego, CA). Succinic acid was measured by using a kit from Megazyme Inc (Cambridge, MA). Control value of activity was set to 100 in each assay. […] PAM3C=25 ng/ml PAM3CSK4 (TLR1/2 inducer); Poly(I:C)=10 ug/ml (TLR3 inducer); PAM2C=25 ng/ml PAM2CSK4 (TLR2/6 inducer); KIN14=4 uM KIN-1400 (RIG-I inducer); cytB=1 uM cytosporone B (Nur77 inducer); C-178=1 uM STING inhibitor; NFkBi=50 ug/ml NFkB inhibitor peptide; SB2021=10 uM p38MAPK inhibitor; *p<0.05, **p<0.01 vs IM3 control; #p<0.01 vs “no inducer” control; SUCC=succinic acid; nd=not done; Peptide was added to cells at 400 nM.
Peptides were added to cells at 400 nM. […]

Marks after values point to notes of the source that are not given here. Peptide text beside a SMILES is read from it.

In the case of `N=C(N)NCCC[C@H](NC(=O)CNC(=O)[C@H](CCCCN)NC(=O)[C@H](CO)NC(=O)[C@@H]1CCCN1C(=O)[C@H](CCCNC(=N)N)NC(=O)[C@H](CS)NC(=O)[C@H](CCC(N)=O)NC(=O)[C@H](CCCCN)NC(=O)[C@H](CCCCN)NC(=O)[C@H](CCCCN)NC(=O)[C@H](Cc1ccc(O)cc1)NC(=O)[C@H](Cc1ccccc1)NC(=O)CNC(=O)[C@H](CCCCN)NC(=O)[C@@H](N)CCCCN)C(=O)N[C@@H](CCCCN)C(=O)N[C@@H](CCCNC(=N)N)C(=O)NCC(=O)N[C@@H](Cc1ccccc1)C(=O)N[C@@H](CS)C(=O)N[C@@H](Cc1c[nH]c2ccccc12)C(=O)O` [IM3] (H-KKGFYKKKQCRPSKGRKRGFCW-OH; N-terminus and C-terminus assumed), the SUCC runs as follows: (peptide 400 nM + KIN1400 (= 100)) 100; (peptide 400 nM + KIN1400 + C-178 1 uM) 103.2; (peptide 400 nM + KIN1400 + NFkBi 50 ug/ml) 99.2; (peptide 400 nM + KIN1400 + SB2021 10 uM) 131.6*; (peptide 400 nM + KIN1400 + cytB 1 uM) 96.1; (peptide 400 nM + PAM2C (= 100)) 100. Also, the SUCC is given as 96.1 (peptide 400 nM + PAM2C + C-178 1 uM); 100.1 (peptide 400 nM + PAM2C + NFkBi 50 ug/ml); 93.4 (peptide 400 nM + PAM2C + SB2021 10 uM); 85.1* (peptide 400 nM + PAM2C + cytB 1 uM); 100 (peptide 400 nM + PAM3C); 95.3 (peptide 400 nM + PAM3C + C-178 1 uM). For the same compound, the SUCC came out at 101.5 (peptide 400 nM + PAM3C + NFkBi 50 ug/ml), 95.8 (peptide 400 nM + PAM3C + SB2021 10 uM) and 95.4 (peptide 400 nM + PAM3C + cytB 1 uM).
